Data from patent publication US8377478B2, “Solid detergent composition” (Innospec Limited, priority 2007, dated 2013).

Tests used:
Type in all cases: physicochemical
[1] = Appearance of the materials observed periodically over 72 hours
Method: The appearance of each of the materials was observed periodically over 72 hours. The observations are recorded in table 2.

[2] = Increase in mass of the samples over time
Source text: Table 3 show how the samples increased in mass over time.

[3] = Solubility: EDDS content of a saturated solution in water; conditions: room temperature, stirred overnight, as free EDDS, ignoring counter ion
Method: The solubility of each sample was measured as follows: An excess of solid material was added to 5 ml of water and stirred overnight at room temperature. The solution was filtered and the filtrate analysed for EDDS content by HPLC. The solubility values given in table 4 refer to the amount of free EDDS or succinate ion present and ignore the mass of any associated counter ion.

In the case of `O=C([O-])CC(NCCNC(CC(=O)[O-])C(=O)[O-])C(=O)[O-].[Mg+2].[Mg+2]` (centres unmarked) [Example A], the “Appearance after 24 hr” value ([1]; after 24 hr) is reported as “Free flowing”, the “Appearance after 48 hr” value [1] is reported as “Free flowing” and the “Appearance after 72 hr” value [1] is reported as “Free flowing”. The “Initial Appearance” value [1] was “Free flowing”, the “% increase in mass after 72 hr” value [2] was 0.10% and the “EDDS content of a saturated solution solubility” value [3] was 164300 mg/kg.
In the case of `O=C([O-])CC(NCCNC(CC(=O)[O-])C(=O)[O-])C(=O)[O-].[Ca+2].[Ca+2]` (centres unmarked) [F], the “Appearance after 24 hr” value ([1]; after 24 hr) is reported as “Slightly”, the “Appearance after 48 hr” value [1] is reported as “Slightly” and the “Appearance after 72 hr” value [1] is reported as “Slightly”. For the same molecule, the “Initial Appearance” value [1] was “Free flowing”, the “% increase in mass after 72 hr” value [2] was 8.81% and the “EDDS content of a saturated solution solubility” value [3] was 10100 mg/kg.
For `O=C1CCC(=O)ON2CCN(O1)OC(=O)CCC(=O)O2.[Na].[Na].[Na]` [Na3EDDS, trisodium ethylenediamine disuccinate], the “Appearance after 48 hr” value [1] was “Very Sticky”, the “Appearance after 72 hr” value [1] was “Very Sticky” and the “Appearance after 24 hr” value ([1]; cell in the 24 hr column marked (2 hr)) was “Sticky Solid”. The “Initial Appearance” value [1] was “Free flowing” and the “% increase in mass after 72 hr” value [2] was 25%.
